In US11298333B1, “Methods of reducing the risk of cardiovascular events in a subject” (Amarin Pharmaceuticals Ireland Limited, priority 2018, dated 2022):

Columns and labels:
[1] = tested on: statin-treated patients with a history of atherosclerosis or diabetes; assay: REDUCE-IT Example 2: recurrent and total ischemic events (Andersen-Gill, Wei-Lin-Weissfeld); assay type: in vivo, human
Description: The following study was a multi-center, placebo-controlled clinical trial the details of which are described above in Example 1, the REDUCE-IT design. […] Randomization was stratified by cardiovascular risk cohort (i.e., secondary or primary prevention), use of ezetimibe, and by geographic region.
The primary outcome for the study was total recurrent events consisting of the composite of cardiovascular death, nonfatal myocardial infarction, nonfatal stroke, coronary revascularization, or hospitalization for unstable angina. Recurrent event analyses were also performed for the key secondary endpoint, a composite of cardiovascular death, non-fatal myocardial infarction, or non-fatal stroke. For each of these composite endpoints, the effects of icosapent ethyl in the secondary and primary prevention strata were examined separately.
Demographic and baseline disease characteristics are presented using frequencies and percentages for categorical variables and medians with interquartile ranges for continuous variables. Between treatment group comparisons were derived using the chi-square test for categorical variables and Wilcoxon rank test for continuous variables. All clinical endpoint events used in the efficacy analyses were adjudicated by an independent Clinical Endpoint Committee (CEC) who were blinded to the treatment assignment. Since the primary efficacy endpoint was the time from randomization to the first occurrence of any component of the composite endpoint, and recurrence of such events within each patient is possible, a pre-specified analysis using a Cox proportional-hazard with the counting-process formulation of Andersen and Gill was performed to model the first and all recurrent cardiovascular events. Hazard ratios (HR) and corresponding 95% confidence intervals (CI) are reported from this model. In addition, as a marginal model and an extension of survival models based on the Cox proportional hazard model, the modified Wei-Lin-Weissfeld (WLW) method for analysis of recurrent events in the presence of deaths was carried out as a supportive analysis. In addition, as pre-specified, a recurrent event analysis using the Andersen-Gill and Wei-Lin-Weissfeld methods were carried out for the individual primary event components other than CV death. Though not pre-specified, additional recurrent event analyses were performed for the key secondary endpoint, which is a composite of CV death, non-fatal MI, or non-fatal stroke, and for the primary endpoint and the key secondary endpoint in the primary and secondary prevention strata to explore further the consistency of clinical benefit of icosapent ethyl. In subgroup analyses of the two cardiovascular risk strata (i.e., primary and secondary prevention), site-level discrepancies in cardiovascular risk group assignment occurring at entry and detected during the study (1.8%) were adjusted to conform with documented medical history data prior to randomization. All efficacy analyses were performed according to the intention-to-treat principle. All tests were based on a 2-sided nominal significance level of 5% with no adjustments for multiple comparisons.

[2] = tested on: TG, non-HDL-C, LDL-C, HDL-C, apo B, hsCRP; assay: REDUCE-IT: fasting lipid, lipoprotein and inflammatory biomarkers over time; assay type: in vivo, human; details: Year 2; ITT
Experimental: Fasting Lipid Profile: The fasting lipid panel included: TG, TC, LDL-C, HDL-C, non-HDL-C, and VLDL-C. At all visits, LDL-C was calculated using the Friedewald equation. At Visit 1 and Visit 1.1 direct LDL-C were used if at the same visit TG >400 mg/dL (4.52 mmol/L). These LDL-C values were used for the evaluation of the LDL-C inclusion criterion (LDL-C qualifying measurements for randomization) and for the assessment of changes in the statin therapy when LDL-C was not at goal. […] In addition, irrespective of the TG levels, at Visit 2 (0 Months of Follow-up, baseline) and at Visit 4 (12 Months of Follow-up), LDL-C were measured by preparative ultracentrifugation. […] Hopkins LDL-C was calculated for each visit. […]
The fasting lipid panel was tested at Screening (Visit 1 or Visit 1.1), Randomization visit (Visit 2; Day 0), Visit 3 (Day 120; ˜4 Months) and all other follow-up visits including the last visit. For change from baseline to 1 year preparative ultracentrifugation measurements for LDL-C were analyzed, unless this value was missing. […] In addition, change from baseline to day 120 in LDL-C utilizing Friedewald's and Hopkins methods was analyzed, using the arithmetic mean of LDL-C obtained at Visit 2 (Day 0) and the preceding Visit 1 (or Visit 1.1). […] LDL-C according to Hopkins was calculated at each visit. […]

[3] = tested on: hypertriglyceridemic patients with cardiovascular disease or at high risk for cardiovascular disease; details: in vivo
Experimental: Specification of Variables and Procedures: Safety assessments included adverse events, clinical laboratory measurements (chemistry, hematology), 12-lead ECGs, vital signs (systolic and diastolic blood pressure, heart rate, respiratory rate, and body temperature), weight, waist circumference, and physical examinations as per Study Procedures in Table 1. […] All laboratory test results were evaluated by the investigator as to their clinical significance. Any observations at physical examinations or laboratory values considered by the investigator to be clinically significant were considered an adverse event.
An adverse event can therefore be any unfavorable and/or unintended sign (including an abnormal laboratory finding), symptom, or disease temporally associated with the use of an investigational medication product, whether or not related to the investigational medication product. All adverse events, including observed or volunteered problems, complaints, or symptoms, were recorded on the appropriate CRF. Each adverse event was evaluated for duration, intensity, and causal relationship with the study medication or other factors.
Serious Adverse Events: A serious adverse event (SAE) is defined as an adverse event that meets any of the following criteria: • Results in death; • Is life-threatening—The term “life-threatening” in the definition of “serious” refers to an event in which the patient was at risk of death at the time of the event. […] Important medical events that may not result in death, be life threatening, or require hospitalization were considered an SAE when, based upon appropriate medical judgment, they may have jeopardized the patient and may have required medical or surgical intervention to prevent one of the outcomes listed above.
Adverse Events of Special Interest: Bleeding-related adverse events, glucose control (fasting blood glucose and HbA1c), and indicators of hepatic disorders (e.g., ALT or AST increases >3×ULN, total bilirubin increases of ≥2×ULN) were summarized separately and compared between treatment groups.
Analysis of Safety: All analyses of safety were conducted on the safety population, which was defined as all randomized patients. The safety assessment was based on the frequency of adverse events, physical exams, vital signs and safety laboratory tests. AEs with new onset during the study between the initiation of study drug and 30 days after the last dose of study drug for each patient was considered treatment-emergent (TEAEs). This included any AE with onset prior to initiation of study drug and increased severity after the treatment initiation.
This included overall incidence rates (regardless of severity and relationship to study drug), and incidence rates for moderate or severe adverse events. A summary of SAEs and adverse events leading to early discontinuation (for ≥30 days) were presented through data listings. Patients who restarted study drug were included in the summary of AEs leading to discontinuation. Safety laboratory tests and vital signs were summarized by post-treatment change from baseline for each of the parameters using descriptive statistics by treatment group. Those patients with significant laboratory abnormalities were identified in data listings. Additional safety parameters were summarized in data listings.

[4] = without adjusting for stratification differences
[5] = without adjustment for stratification differences

CC/C=C\C/C=C\C/C=C\C/C=C\C/C=C\CCCC(=O)OCC [Icosapent Ethyl, eicosapentaenoic acid ethyl ester]
First occurrence of primary composite endpoint: HR vs placebo ([1]; Wei-Lin-Weissfeld model): 0.75 | Second occurrence of primary composite endpoint: HR vs placebo ([1]; Wei-Lin-Weissfeld model): 0.72 | Total key secondary endpoints: HR, primary prevention stratum ([1]; adjusted stratification): 0.71 | Total key secondary endpoints: HR, secondary prevention stratum ([1]; adjusted stratification): 0.70 | Total primary endpoint events: HR, primary prevention stratum ([1]; adjusted stratification): 0.79 | Total primary endpoint events: HR, secondary prevention stratum ([1]; adjusted stratification): 0.66 | Cardiovascular deaths prevented per 100 patients treated for five years ([1]; in vivo): 1 | Coronary revascularizations prevented per 100 patients treated for five years ([1]; in vivo): 8 | Episodes of unstable angina prevented per 100 patients treated for five years ([1]; in vivo): 2 | Myocardial infarctions prevented per 100 patients treated for five years ([1]; in vivo): 4 | Relative risk reduction in total events for the primary composite efficacy outcome ([1]; in vivo): 32% | Strokes prevented per 100 patients treated for five years ([1]; in vivo): 1 | Total key secondary endpoints: HR vs placebo ([1]; overall): 0.71 | Total primary endpoint events: HR, primary prevention stratum [1, 4]: 0.86 | Total primary endpoint events: HR, secondary prevention stratum [1, 4]: 0.65 | Total key secondary endpoint events: HR, primary prevention [1, 5]: 0.78 | Total key secondary endpoint events: HR, secondary prevention stratum [1, 5]: 0.69 | Triglycerides median absolute change from baseline [2]: 85 mg/dL | TEAE Upper respiratory tract infection ([3]; human): 312 (7.6%) n (%) | TEAE Urinary tract infection ([3]; human): 253 (6.2%) n (%) | Fatal bleeding events [3]: no fatal bleeding events
